Test results reported in patent US20250304623A1, “PEPTIDES FOR INTRACELLULAR DELIVERY” (UNIVERSIDADE DE SANTIAGO DE COMPOSTELA, priority 2022, published 2025).
Starred links: 1 amine or outer side, 2 acyl side, 3 side chain; linkers in the order of their positions; H or OH if unused. Residues, ends and D or L forms follow the SMILES beside them. Groups on a side chain read outwards from the residue. *: point of attachment. Glutaryl = O=C(CCCC(=O)[*:2])[*:1]; X1 = CCCC/C=C\CCCCCCCC=NN*; NHNH2 = NN*

Assays:
[1] = MTS cell viability of transfected cells, A549; assay type: cell-based; conditions: human; A549 cells transfected with Cas9-RNP complexes; myristoleyl, palmitoleyl or petroselinyl aldehydes
Protocol: For Cas9-RNP delivery, the efficiency on GFP silencing was around 60-70% when complexing the protein with an amphiphile comprising 7.3(Leu-His) and myristoleyl, palmitoleyl or petroselinyl aldehydes. Cells transfected with the above-indicated complexes present a cell viability higher than 80%. Viability assays were performed employing the CellTiter 96© Aqueous Non-Radioactive Cell Proliferation Assay (MTS) and following the manufacturer's instructions. Briefly, 20 μL of the combined MTS/PMS solution were added into each well of the 96-well assay plate containing cells in culture medium (100 μL). The plate was incubated 4 hours at 37° C. and 5% CO2 in a humidified atmosphere. Then, absorbance (490 nm) was recorded in an INFINITE M1000 PRO (TECAN).

HeLa-EGFP cells = test: Cas9 ribonucleoprotein delivery, flow cytometry of EGFP negative cells; assay type: cell-based
Protocol: FIG. 2 Percentage of editing (in bars, left axis) in HeLa-EGFP cells incubated with Cas9 ribonucleoprotein with an EGFP-targeting gRNA using the amphiphiles comprising 7.3(Leu-His) peptide with myristoleyl, palmitoleyl or petroselinyl aldehydes. After 3 days, EGFP negative cells (bars; left axis) and cell concentration (dots; right axis) were quantified by flow cytometry. ([Cas9]=50 nM, amphiphiles concentration in μM).
The inventors evaluated the intracellular delivery of Cas9 ribonucleoprotein with a gRNA targeting EGFP into HeLa-EGFP cells, using an amphiphilic molecule comprising peptide 7.3(Leu-His) combined with myristoleyl, palmitoleyl or petroselinyl aldehydes. After 3 days, EGFP negative cells were quantified by flow cytometry.

Hela cells = test: EGFP pDNA transfection, flow cytometry, HeLa; assay type: cell-based; conditions: HeLa seeded at 60,000, 120,000 and 240,000 cells/mL
Protocol: For cytometry-based assays, the delivery of pDNA encoding for the expression of eGFP gene (GFP) in HeLa and A549 cells was performed. Amphiphilic molecule stock solutions in DMSO were diluted with DMEM and freshly mixed with pDNA stock solutions in DMEM prior to transfection experiments, to afford several complexes at different amphiphile concentration (2.5-10 μM) while maintaining a constant final pDNA concentration of 2 ng/μL. The mixture was shaken for 30 min at room temperature before the addition to the cells. The cell medium was aspirated, and cells were washed twice with PBS. Finally, 50 μL of the complex's solution were added to the cells and incubated for 4 h. After the incubation, the medium was replaced by 100 μL of fresh DMEM supplemented with 10% FBS. 72 hours after transfection the DMEM was removed, and cells were cultured for 5 min with 100 μL of trypsin. Then, 100 μL of PBS (supplemented with 2% FBS and 1% EDTA 0.5M) were added. Finally, the GFP fluorescent measurement was performed in a flow cytometer and the percentage of GFP positive (i.e., transfected cells) were quantified. Amphiphile transfection efficiency was compared to control, non-treated cells and all experiments were done in triplicate.
7.3(Leu-His) peptide with D-amino acids was synthesized. This peptide would be more resistant to the degradation by proteases. The inventors studied the delivery of EGFP pDNA using amphiphiles comprising either enantiomer (either 7.3(Leu-His) peptide with D-amino acids or with L-amino acids) and myristoleyl aldehyde to compare their transfecting activity in HeLa cells. Number of EGFP expressing cells was measured by flow cytometry.
Experiments in cultured cells at different confluence levels were performed to check the effect of this parameter on the activity of amphiphile 7.3(Leu-His) M. As described above, transfection experiments are usually performed on cells seeded the day before at a cell concentration of 60,000 cell/mL (100 μL/well). In the current example, transfection experiments with EGFP pDNA are performed in HeLa cells two and four times more concentrated (120,000 and 240,000 cells/mL, respectively). […] However, for this experiment more volume of complex amphiphile/pDNA was needed as the cell concentration was increased (50, 100 and 200 μL of complexes were used for 60,000, 120,000 and 240,000 cells/mL, respectively).
Several structural modifications were performed on the peptide 7.3(Leu-His). The delivery of EGFP pDNA in HeLa cells using amphiphiles comprising these peptides and myristoleyl aldehyde was tested. The modifications consisted of the modification in the order of the amino acids, the replacement of 1 to 3 K* residues for O* residues and the addition of 1 or 2 R residues on the N-terminus. […]

Ai14 mice = test: In vivo gene editing by Cre mRNA delivery, tdTomato fluorescence; conditions: i.v.; 7 μg Cre mRNA; 1:1 and 5:1 mass ratio amphiphile:mRNA; 2 days
Protocol: In vivo gene editing enables localization and quantification of expression following Cre recombinase mRNA delivery in Ai14 mice, a reporter strain that expresses tdTomato fluorescence after Cre-mediated recombination.
The inventors evaluated the mRNA delivery efficiency of amphiphile by i.v. injections of an amphiphile-complexed Cre recombinase mRNA (CleanCap® Cre mRNA (5moU), TriLink, L-7211) in Ai14 mice. Amphiphilic molecule stock solutions were prepared in DMSO as described above. The solutions of mRNA/amphiphile complexes were freshly prepared prior to in vivo experiments. Amphiphile solutions in DMSO were mixed with mRNA solutions in a suitable buffer, such as PBS, or phosphate buffer enriched with inorganic salts (1:1 and 5:1 mass ratio, final amount of mRNA per mice=7 μg/mouse). The mixture was shaken for 30 min at room temperature before injection. For each mouse, 7 μg mRNA was complexed with 7.3(Leu-His) with myristoleyl aldehyde (7.3(Leu-His) M), and administered by i.v. injection in the tail vein in 100 μL of a suitable buffer, such as PBS, or phosphate buffer enriched with inorganic salts. As control, 7 μg of naked mRNA was injected in three mice. After 2 days, mice were sacrificed and were imaged to confirm tdTomato expression.

| Structure (SMILES) | viability [1] [%] | % of editing (EGFP negative cells) (HeLa-EGFP cells; Cas9 50 nM, flow cytometry after 3 days, amphiphile tails myristoleyl or palmitoleyl) [%] | concentration of cells relative to Lipofectamine (HeLa-EGFP cells; after 3 days, myristoleyl or palmitoleyl aldehydes, on average) | EGFP pDNA transfection at different cell confluence (Hela cells) | tdTomato expression in organs (Ai14 mice) |
| --- | --- | --- | --- | --- | --- |
| CC(=O)N[C@@H](CCCNC(=N)N)C(=O)N[C@@H](CCCCNC(=O)CCCC(=O)NN)C(=O)N[C@@H](Cc1c[nH]cn1)C(=O)N[C@@H](CCCNC(=N)N)C(=O)N[C@@H](CCCCNC(=O)CCCC(=O)NN)C(=O)N[C@@H](CCCCNC(=O)CCCC(=O)NN)C(=O)N[C@@H](Cc1c[nH]cn1)C(N)=O [7.3(L-H), Ac-RK*HRK*K*H-NH2] (Ac-RK([Glutaryl-NHNH2])HRK([Glutaryl-NHNH2])K([Glutaryl-NHNH2])H-NH2) | > 80 | 70 | three times higher | – | – |
| CCCC/C=C\CCCCCCCC=NNC(=O)CCCC(=O)NCCCC[C@H](NC(=O)[C@H](CCCCNC(=O)CCCC(=O)NN=CCCCCCCC/C=C\CCCC)NC(=O)[C@H](CCCNC(=N)N)NC(=O)[C@H](Cc1c[nH]cn1)NC(=O)[C@H](CCCCNC(=O)CCCC(=O)NN=CCCCCCCC/C=C\CCCC)NC(=O)[C@H](CCCNC(=N)N)NC(C)=O)C(=O)N[C@@H](Cc1c[nH]cn1)C(N)=O [7.3(Leu-His) M] (Ac-RK([Glutaryl-X1])HRK([Glutaryl-X1])K([Glutaryl-X1])H-NH2) | – | – | – | performs equally well at all cell concentrations tested | expression of tdTomato protein was observed preferably in spleen and lungs, being more intense when using 5:1 mass ratio amphiphile:mRNA |
